Data taken from patent US9441237B2, “Auxin receptors” (THE GOVERNORS OF THE UNIVERSITY OF ALBERTA, priority 2010, dated 2016).

Columns and labels:
deseeded pea pericarps [1] = settings: hormone applied to deseeded pericarps, split-pericarp assay; literature (Reinecke et al. 1995, 1999; Ozga and Reinecke 1999; Johnstone et al. 2005); cited from earlier work
deseeded pea pericarps [2] = assay: Deseeded pea pericarp growth / fruit abortion after hormone application (split-pericarp); format: in vivo, Pisum sativum; settings: hormone applied to deseeded ovaries
[3] = system: PsAFB2 transcript abundance in pericarp; assay: Pea split-pericarp assay, hormone applied to deseeded pericarps, PsAFB2 transcript abundance by qRT-PCR; format: in vivo, Pisum sativum; settings: deseeded 2 DAA pericarps, 50 μM hormone applied 12 h after deseeding, 2, 8 and 12 h after application
Protocol: (§1) To examine the hormonal regulation of pericarp AFB mRNA levels, the pea split-pericarp assay was used (Ozga et al., 1992). Fruit at 2 DAA were split along the dorsal suture. Seeds were removed and pericarps were left for 12 hours prior to hormone application to reduce residual seed effects. […] For split-pod, no seed controls (SPNS), 30 μL of 0.1% aqueous Tween 80 was applied. For split-pod controls (SP), seeds were not removed after the dorsal suture was opened, but 30 μL of 0.1% aqueous Tween 80 was applied 12 hours after pericarp splitting. As a further control for the split-pericarp procedure, intact pods were also harvested at the appropriate times. All fruit subjected to split-pericarp treatments were covered with plastic to maintain humidity, and all manipulations were carried out while pericarps remained on the plant. Intact controls were harvested at the 0 hour and 12 hour treatment timing, while all split-pericarp treatments were harvested at 12, 14, 20, and 24 hours after pericarp splitting (0, 2, 8, and 12 hours after hormone treatment).
All transcript quantification was performed on a StepOnePlus sequence detector (Applied Biosystems). Reverse transcription and quantification was performed using TaqMan One-Step RT-PCR Master Mix (Applied Biosystems; final concentration 1×) and 200 ng of DNAse treated total RNA (final concentration 8 ng μL^−1) in duplicate in a final volume of 25 μL per well. The final concentration of forward and reverse primers was 300 nM each, and the final concentration of probe was 100 nM. Reverse transcription was carried out for 30 minutes at 48° C. […] Quantification was carried out for 40 cycles of the following program: denaturation at 95° C. for 15 seconds, primer annealing and extension at 60° C. for 1 minute. […]
(§2) Relative transcript levels were calculated using the ΔCt method (Livak and Schmittgen, 2001) using the following formula, where X is an arbitrary value equal to or greater than the highest assayed Ct value and E is the reaction efficiency for the amplicon in question: Transcript abundance=(1+E)^X−Ct) (1)

[4] = system: PsAFB6 transcript abundance in pericarp; assay: Pea split-pericarp assay, hormone applied to deseeded pericarps, PsAFB6 transcript abundance by qRT-PCR; format: in vivo, Pisum sativum; settings: deseeded 2 DAA pericarps, 50 μM hormone
Protocol: as §1
All transcript quantification was performed on a StepOnePlus sequence detector (Applied Biosystems). Reverse transcription and quantification was performed using TaqMan One-Step RT-PCR Master Mix (Applied Biosystems; final concentration 1×) and 200 ng of DNAse treated total RNA (final concentration 8 ng μL^−1) in duplicate in a final volume of 25 μL per well. The final concentration of forward and reverse primers was 300 nM each, and the final concentration of probe was 100 nM. Reverse transcription was carried out for 30 minutes at 48° C. DNA polymerase antibody was denatured at 95° C. for 10 minutes. Quantification was carried out for 40 cycles of the following program: denaturation at 95° C. for 15 seconds, primer annealing and extension at 60° C. for 1 minute. Probes were labelled at the 5′ end with FAM (6-carboxyfluorescein) and at the 3′ end with the MGB quencher (Applied Biosystems).
as §2

[5] = throughout the time course (2 to 12 h after application)

SMILES | deseeded pericarp growth (deseeded pea pericarps [1]) | abortion of deseeded fruits (deseeded pea pericarps [2]) | effect on steady-state PsAFB2 transcript abundance [3] | effect on pericarp PsAFB6 mRNA abundance ([4]; 8 hours to 12 hours after application) | effect on pericarp PsAFB6 mRNA abundance [4, 5] | effect on pericarp PsAFB6 mRNA abundance ([4]; 2 hours after application)
C=C1C[C@]23C[C@@]1(O)CC[C@H]2[C@@]12CC[C@H](O)[C@@](C)(C(=O)O1)[C@H]2[C@@H]3C(=O)O [GA1] | stimulate deseeded pericarp growth | – | – | – | – | –
O=C(O)Cc1c[nH]c2ccccc12 [IAA, indole-3-acetic acid] | further decreases growth | nor does it prevent the abortion of deseeded fruits | did not significantly affect | increased to that observed in the SPNS pericarps | – | –
C=C1C[C@]23C[C@@]1(O)CC[C@H]2[C@@]12C=C[C@H](O)[C@@](C)(C(=O)O1)[C@H]2[C@@H]3C(=O)O [GA3] | stimulate deseeded pericarp growth | – | did not significantly affect | – | no effect | –
O=C(O)Cc1c[nH]c2cccc(Cl)c12 [4-Cl-IAA, 4-chloroindole-3-acetic acid] | stimulated pericarp growth | prevention of fruit abortion | did not significantly affect | – | reduced PsAFB6 mRNA abundance to levels similar to those found in SP controls | initially reduced
Cc1cccc2[nH]cc(CC(=O)O)c12 [4-Me-IAA] | capable of stimulating the expansion of deseeded pericarps, but not to the same extent as 4-Cl-IAA | – | – | – | – | –
